Molecules are shown by their SMILES.

The target in this experiment is T1, KRAS 4B G12C protein (Homo sapiens, UniProt P01116, G12C).
T1 construct: This protein contained 188 amino acids in total, including an N-terminal 6-Histidine tag; made in house; host or cells: E. coli BL21
Put plainly: In vitro covalent adduct formation (CAF) assay by LC-MS. The experiment is classed as binding. Particulars: compound 10 μM, protein 5 μM, 22° C., percentage of protein bound by the compound. As to the method:
In vitro covalent adduct formation assay: Covalent adduct formation (CAF) reactions between Cys12 of the KRAS 4B G12C protein and some of the compounds of Table 1 were measured in vitro using liquid chromatography-mass spectrometry (LC-MS).
Recombinant Human KRAS 4B protein containing the G12C mutation was used in compound screening experiments. This protein contained 188 amino acids in total, including an N-terminal 6-Histidine tag, followed by a Tobacco Etch Virus (TEV) tag, followed by residues 1-169 of the native KRAS 4B sequence. The exact mass of the protein was 21,310 Da as determined by mass spectrometry. The full amino acid sequence is shown below:
The recombinant protein was expressed in E. coli BL21 cells and purified using affinity chromatography via a Ni-NTA column. […] Pure KRAS 4B G12C protein was diluted to a concentration of 5 μM in Tris Buffered Saline, pH 7.4. The compounds were dissolved in DMSO and added to the diluted protein to make a 10 μM concentration. The total DMSO concentration in the reaction was 4%. The reaction was mixed by pipetting and incubated at 22° C. for one hour. Aliquots of the reaction were taken over time and diluted 2:1 in 0.1% formic acid. The intact mass of the protein samples was measured by LC-MS using a QExactive+ mass spectrometer (Thermo Scientific). An amount of 500 ng total protein was injected onto a C8 reverse phase column, eluted with a seven-minute gradient of 30%-90% acetonitrile/0.1% formic acid, and analyzed for intact mass by the mass spectrometer. Adducts identified were confirmed to be within 1 Dalton of the expected mass, and the relative ratios of free:adduct protein were used to quantify the percentage of protein bound by the compound. CAF reactions were run in duplicate, with a typical variability of ±5%.

With `C=CC(=O)N1CCN(c2nc(OC[C@@H]3CCCN3C)nc3c2CN(C2CCc4ccccc42)C3)C2CS(=O)(=O)CC21` (stereo partly shown) [1-210], the “CAF (10 minutes/60 minutes) at 10 micromolar: 10 minutes” value (from here on “CAF … at 10 micromolar: 10 minutes”) is reported as 0%/ 0% and the “CAF (10 minutes/60 minutes) at 10 micromolar: 60 minutes” value (shortened to “CAF … at 10 micromolar: 60 minutes”) came out at 0%/ 0%.

Take `C=CC(=O)N1CCN(c2nc(OCCCN3CCOCC3)nc3c2CN(C2CCc4ccccc42)C3)C[C@@H]1CC#N` (stereo partly shown) [1-131]: the “CAF … at 10 micromolar: 10 minutes” value is on record as 76% and the “CAF … at 10 micromolar: 60 minutes” value came out at 97%.

With `C=CC(=O)N1CCN(c2nc(OC[C@@H]3CCCN3C)nc3c2CN(Cc2c(Cl)ccc(O)c2Cl)C3)C[C@@H]1CC#N` [1-321], the “CAF … at 10 micromolar: 10 minutes” value worked out at 88% and the “CAF … at 10 micromolar: 60 minutes” value was determined as 90%.

Take `C=CC(=O)N1CCN(c2nc(OC[C@@H]3CCCN3C)nc3c2CN(C2CCc4ccccc42)C3)C[C@@H]1CCC(N)=O` (stereo partly shown) [1-231]: the “CAF … at 10 micromolar: 10 minutes” value is recorded as 0% and the “CAF … at 10 micromolar: 60 minutes” value is recorded as 1%.

Consider `C=CC(=O)N1CCN(c2nc(Oc3cccc4c3CN(C)C4)nc3c2CN(C2CCc4ccccc42)C3)C[C@@H]1CC#N` (stereo partly shown) [1-174], for which the “CAF … at 10 micromolar: 10 minutes” value is on record as 9% and the “CAF … at 10 micromolar: 60 minutes” value is 28%.

Regarding `C=C(F)C(=O)N1CCN(c2nc(OC[C@@H]3CCCN3C)nc3c2CN(Cc2c(C)cc(C)c(O)c2C)C3)C[C@@H]1CC#N` [1-325], the “CAF … at 10 micromolar: 10 minutes” value worked out at 0% and the “CAF … at 10 micromolar: 60 minutes” value was found to be 3%.

In the case of `C=CC(=O)N1CCN(c2nc(OC[C@@H]3CCCN3C)nc3c2CN(c2cccc4cccc(C)c24)C3)C[C@@H]1CC(F)(F)F` [1-48], the “CAF … at 10 micromolar: 10 minutes” value is 0% and the “CAF … at 10 micromolar: 60 minutes” value was determined as 1%.

On to `C=CC(=O)N1CCN(c2nc(OCC3CCCC3)nc3c2CN(Cc2c(O)cccc2F)C3)C[C@@H]1CC#N` [1-71], for which the “CAF … at 10 micromolar: 10 minutes” value worked out at 9% and the “CAF … at 10 micromolar: 60 minutes” value was determined as 45%.

For the compound `C=CC(=O)N1CCN(c2nc(OC[C@@H]3CCCN3C)nc3c2CN(C2CCc4cccc(Cl)c42)C3)C[C@@H]1CC#N` (stereo partly shown) [1-84], the “CAF … at 10 micromolar: 10 minutes” value was 98% and the “CAF … at 10 micromolar: 60 minutes” value stood at 99%.

In the case of `C=CC(=O)N1CCN(c2nc(OC[C@@H]3CCC(=O)N3C)nc3c2CN(C2CCc4ccccc42)C3)C[C@@H]1CC#N` (stereo partly shown) [1-122], the “CAF … at 10 micromolar: 10 minutes” value is given as 21% and the “CAF … at 10 micromolar: 60 minutes” value worked out at 57%.

For the compound `C=CC(=O)N1CCN(c2nc(OC[C@@H]3CCCN3C)nc3c2CN(C2CC(C)(C)c4ccccc42)C3)C[C@@H]1CC#N` (stereo partly shown) [1-169], the “CAF … at 10 micromolar: 10 minutes” value is given as 63% and the “CAF … at 10 micromolar: 60 minutes” value was determined as 70%.

With `C=CC(=O)N1CCN(c2nc(OC[C@@H]3CCCN3C)nc3c2CN(Cc2cc(O)ccc2Cl)C3)C[C@@H]1CC#N` [1-26, 2-((S)-1-acryloyl-4-(6-(2-chloro-5-hydroxybenzyl)-2-(((S)-1-methylpyrrolidin-2-yl)methoxy)-6,7-dihydro-5H-pyrrolo[3,4-d]pyrimidin-4-yl)piperazin-2-yl)acetonitrile], the “CAF … at 10 micromolar: 10 minutes” value came to 74%/ 74% and the “CAF … at 10 micromolar: 60 minutes” value turned out to be 74%/ 74%.

As for `C=CC(=O)N1CCN(c2nc(OC[C@@H]3CCCN3C)nc3c2CN(C2CCc4ccccc42)C3)C[C@@H]1Cn1cccn1` (stereo partly shown) [1-220], the “CAF … at 10 micromolar: 10 minutes” value is on record as 0% and the “CAF … at 10 micromolar: 60 minutes” value was 2%.

Regarding `C=CC(=O)N1CCN(c2nc(OC[C@@H]3CCCN3C)nc3c2CN(Cc2cc(F)ccc2F)C3)C[C@@H]1CC#N` [1-27], the “CAF … at 10 micromolar: 10 minutes” value came out at 68% and the “CAF … at 10 micromolar: 60 minutes” value turned out to be 97%.

On to `C=CC(=O)N1CCN(c2nc(OC[C@@H]3CCCN3C3CC3)nc3c2CN(C2CCc4ccccc42)C3)C[C@@H]1CC#N` (stereo partly drawn) [1-198, 2-((2S)-1-acryloyl-4-(2-(((S)-1-cyclopropylpyrrolidin-2-yl)methoxy)-6-(2,3-dihydro-1H-inden-1-yl)-6,7-dihydro-5H-pyrrolo[3,4-d]pyrimidin-4-yl)piperazin-2-yl)acetonitrile], for which the “CAF … at 10 micromolar: 10 minutes” value amounted to 15% and the “CAF … at 10 micromolar: 60 minutes” value turned out to be 18%.

Regarding `C=C(F)C(=O)N1CCN(c2nc(OC[C@@H]3CCCN3C)nc3c2CN(Cc2c(Cl)ccc4ccccc24)C3)C[C@@H]1CC#N` [1-254], the “CAF … at 10 micromolar: 10 minutes” value amounted to 31% and the “CAF … at 10 micromolar: 60 minutes” value is 73%.

Take `C=CC(=O)N1C[C@H](C)N(c2nc(OC[C@@H]3CCCN3C)nc3c2CN(Cc2c(C)ccc(O)c2C)C3)C[C@H]1C` [1-21]: the “CAF … at 10 micromolar: 10 minutes” value is on record as 20% and the “CAF … at 10 micromolar: 60 minutes” value was 63%.

With `C=CC(=O)N1CCN(c2nc(OC[C@@H]3CCCN3C)nc3c2CN(Cc2ccc(F)cc2Cl)C3)C[C@@H]1CC#N` [1-96], the “CAF … at 10 micromolar: 10 minutes” value is reported as 51% and the “CAF … at 10 micromolar: 60 minutes” value turned out to be 93%.

On to `C=CC(=O)N1CCN(c2nc(OCC3CCCC3)nc3c2CN(Cc2c(F)cccc2OC)C3)C[C@@H]1CC#N` [1-66], for which the “CAF … at 10 micromolar: 10 minutes” value stood at 1% and the “CAF … at 10 micromolar: 60 minutes” value is listed as 14%.

Consider `C=CC(=O)N1CCN(c2nc(OC[C@@H]3CCCN3C)nc3c2CN(Cc2ccccc2Cl)C3)C[C@@H]1CC#N` [1-75], for which the “CAF … at 10 micromolar: 10 minutes” value was 96% and the “CAF … at 10 micromolar: 60 minutes” value was determined as 97%.

Consider `C=CC(=O)N1CCN(c2nc(OC[C@@H]3CCCN3C)nc3c2CN(Cc2ccccc2CC(C)C)C3)C[C@@H]1CC#N` [1-191], for which the “CAF … at 10 micromolar: 10 minutes” value is reported as 52% and the “CAF … at 10 micromolar: 60 minutes” value worked out at 73%.

With `C=CC(=O)N1CCN(c2nc(OC[C@@H]3CCCN3C)nc3c2CN(C2CCc4ccccc42)C3)C[C@@H]1CSC` (stereo partly shown) [1-195], the “CAF … at 10 micromolar: 10 minutes” value is recorded as 0% and the “CAF … at 10 micromolar: 60 minutes” value worked out at 2%.

For the compound `C=C(F)C(=O)N1CCN(c2nc(OC[C@@H]3CCCN3C)nc3c2CN(C2CCc4ccccc42)C3)C[C@@H]1CC#N` (stereo partly shown) [1-109], the “CAF … at 10 micromolar: 10 minutes” value amounted to 48% and the “CAF … at 10 micromolar: 60 minutes” value was found to be 68%.

On to `C=CC(=O)N1CCN(c2nc(OC[C@@H]3CCCN3C)nc3c2CN(Cc2c(C)cccc2C)C3)C[C@@H]1CC#N` [1-29], for which the “CAF … at 10 micromolar: 10 minutes” value was 98% and the “CAF … at 10 micromolar: 60 minutes” value is 99%.

Turning to `C=CC(=O)N1CCN(c2nc(OC[C@@H]3CCCN3C)nc3c2CN(Cc2c(F)cccc2F)C3)C[C@@H]1CC#N` [1-61], the “CAF … at 10 micromolar: 60 minutes” value is “NA/ 80%”.

`C=CC(=O)N1CCN(c2nc(OC[C@@H]3CCCN3C)nc3c2CN(C2CCCc4ccccc42)C3)C[C@@H]1CC#N` (stereo partly shown) [1-52]: the “CAF … at 10 micromolar: 10 minutes” value was 6% and the “CAF … at 10 micromolar: 60 minutes” value was determined as 91%.

For the compound `C=CC(=O)N1CCN(c2nc(OC[C@@H]3CCCN3C)nc3c2CN(Cc2cc(OC)ccc2Cl)C3)C[C@@H]1CC#N` [1-68], the “CAF … at 10 micromolar: 10 minutes” value was found to be 90% and the “CAF … at 10 micromolar: 60 minutes” value is recorded as 97%.

Consider `C=CC(=O)N1CCN(c2nc(OC[C@@H]3CCCN3C)nc3c2CN(Cc2c(F)cccc2OC)C3)C[C@@H]1CC#N` [1-36], for which the “CAF … at 10 micromolar: 10 minutes” value stood at 91% and the “CAF … at 10 micromolar: 60 minutes” value was found to be 97%.

Values taken from patent US20210292330A1, “PYRROLIDINE-FUSED HETEROCYCLES” (Erasca, Inc., priority 2020, published 2021).
